Reference: US7691858B2, “Kinase inhibitors and methods of use thereof” (TargeGen, Inc., priority 2006, dated 2010)
“Also recorded” adds a separate entry of the source.

Legend:
[1] = target: T1, SAPK3 (Homo sapiens, UniProt P53778); experiment: Kinase panel screen; format: biochemical; details: Compound I and ATP 10 μM
T1 construct: purchased Upstate USA or Invitrogen (commercial screening service)

[2] = target: T2, SAPK2b (Homo sapiens, UniProt Q15759); experiment: Kinase panel screen; format: biochemical; details: Compound I and ATP 10 μM
T2 construct: purchased Upstate USA or Invitrogen (commercial screening service)

[3] = target: T3, DDR2 (Homo sapiens, UniProt Q16832); experiment: Kinase panel screen; format: biochemical; details: Compound I and ATP 10 μM
T3 construct: purchased Upstate USA or Invitrogen (commercial screening service)
T3 sequence (Q16832 22-855): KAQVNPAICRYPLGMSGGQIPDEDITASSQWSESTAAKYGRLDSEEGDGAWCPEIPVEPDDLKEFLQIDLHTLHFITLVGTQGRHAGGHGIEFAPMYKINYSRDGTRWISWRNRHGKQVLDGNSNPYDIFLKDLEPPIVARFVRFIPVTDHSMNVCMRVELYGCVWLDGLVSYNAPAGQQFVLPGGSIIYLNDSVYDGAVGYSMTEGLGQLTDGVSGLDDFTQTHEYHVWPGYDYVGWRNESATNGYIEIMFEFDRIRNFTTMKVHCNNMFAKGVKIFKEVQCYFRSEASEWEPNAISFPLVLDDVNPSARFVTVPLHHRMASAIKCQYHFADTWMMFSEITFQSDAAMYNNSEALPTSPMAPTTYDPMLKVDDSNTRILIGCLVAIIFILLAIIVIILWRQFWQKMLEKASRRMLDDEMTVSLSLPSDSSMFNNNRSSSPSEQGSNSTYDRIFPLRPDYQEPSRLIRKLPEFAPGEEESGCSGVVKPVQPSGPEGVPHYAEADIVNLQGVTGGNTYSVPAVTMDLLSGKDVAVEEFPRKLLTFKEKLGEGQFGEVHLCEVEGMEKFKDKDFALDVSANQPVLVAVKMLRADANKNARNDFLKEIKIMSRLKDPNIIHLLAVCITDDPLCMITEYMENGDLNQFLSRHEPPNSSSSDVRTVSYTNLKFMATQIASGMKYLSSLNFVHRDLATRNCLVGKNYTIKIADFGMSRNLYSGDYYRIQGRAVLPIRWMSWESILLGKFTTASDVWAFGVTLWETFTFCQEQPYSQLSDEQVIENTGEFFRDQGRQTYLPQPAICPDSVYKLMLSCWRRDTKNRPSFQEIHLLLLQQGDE

[4] = target: T4, Lyn (Mus musculus, UniProt P25911); experiment: Kinase panel screen; format: biochemical; details: Compound I and ATP 10 μM
T4 construct: purchased Upstate USA or Invitrogen (commercial screening service)

[5] = target: T5, ZAP-70 (Homo sapiens, UniProt P43403); experiment: Kinase panel screen; format: biochemical; details: Compound I and ATP 10 μM
T5 construct: purchased Upstate USA or Invitrogen (commercial screening service)

[6] = target: MKK6 (Homo sapiens, UniProt P52564); experiment: Kinase panel screen; format: biochemical; details: Compound I and ATP 10 μM
MKK6, sequence (P52564 whole entry): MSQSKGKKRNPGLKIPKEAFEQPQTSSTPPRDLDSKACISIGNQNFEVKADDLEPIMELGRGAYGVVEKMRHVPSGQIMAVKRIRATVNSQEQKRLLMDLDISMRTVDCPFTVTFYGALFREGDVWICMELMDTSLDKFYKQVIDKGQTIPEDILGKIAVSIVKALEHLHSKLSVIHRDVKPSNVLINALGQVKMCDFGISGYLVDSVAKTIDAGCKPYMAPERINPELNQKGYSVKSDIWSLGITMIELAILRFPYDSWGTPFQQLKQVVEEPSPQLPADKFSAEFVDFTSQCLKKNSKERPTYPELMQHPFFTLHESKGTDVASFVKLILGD

[7] = target: T6, ErbB4 (Homo sapiens, UniProt Q15303); experiment: Kinase panel screen; format: biochemical; details: Compound I and ATP 10 μM
T6 construct: purchased Upstate USA or Invitrogen (commercial screening service)

[8] = target: T7, cRaf (Homo sapiens, UniProt P04049); experiment: Kinase panel screen; format: biochemical; details: Compound I at 1 μM and ATP at the apparent Km
T7 construct: purchased Upstate USA or Invitrogen (commercial screening service)

[9] = target: T8, Akt1 (Homo sapiens, UniProt P31749); experiment: Kinase panel screen; format: biochemical; details: Compound I at 1 μM and ATP at the apparent Km
T8 construct: purchased Upstate USA or Invitrogen (commercial screening service)

[10] = target: T9, PKCi (Homo sapiens, UniProt P41743); experiment: Kinase panel screen; format: biochemical; details: Compound I and ATP 10 μM
T9 construct: purchased Upstate USA or Invitrogen (commercial screening service)

[11] = target: T10, Akt3 (Homo sapiens, UniProt Q9Y243); experiment: Kinase panel screen; format: biochemical; details: Compound I at 1 μM and ATP at the apparent Km
T10 construct: purchased Upstate USA or Invitrogen (commercial screening service)
T10 sequence (Q9Y243 whole entry): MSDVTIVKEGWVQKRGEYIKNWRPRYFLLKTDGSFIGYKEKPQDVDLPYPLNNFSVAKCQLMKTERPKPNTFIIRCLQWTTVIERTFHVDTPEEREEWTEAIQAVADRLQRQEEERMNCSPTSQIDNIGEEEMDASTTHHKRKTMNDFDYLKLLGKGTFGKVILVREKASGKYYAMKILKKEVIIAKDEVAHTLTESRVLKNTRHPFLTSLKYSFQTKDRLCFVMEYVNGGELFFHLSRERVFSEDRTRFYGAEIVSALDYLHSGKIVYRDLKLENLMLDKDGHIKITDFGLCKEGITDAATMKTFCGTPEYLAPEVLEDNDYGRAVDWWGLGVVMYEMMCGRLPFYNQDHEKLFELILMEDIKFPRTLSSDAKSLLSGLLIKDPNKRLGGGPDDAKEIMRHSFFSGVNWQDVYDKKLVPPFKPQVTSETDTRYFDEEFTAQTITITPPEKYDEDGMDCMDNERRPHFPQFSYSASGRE

[12] = target: T11, MEK1 (Homo sapiens, UniProt Q02750); experiment: Kinase panel screen; format: biochemical; details: Compound I and ATP 10 μM
T11 construct: purchased Upstate USA or Invitrogen (commercial screening service)

[13] = target: ZIPK (Homo sapiens, UniProt O43293); experiment: Kinase panel screen; format: biochemical; details: Compound I and ATP 10 μM
ZIPK, sequence (O43293 whole entry): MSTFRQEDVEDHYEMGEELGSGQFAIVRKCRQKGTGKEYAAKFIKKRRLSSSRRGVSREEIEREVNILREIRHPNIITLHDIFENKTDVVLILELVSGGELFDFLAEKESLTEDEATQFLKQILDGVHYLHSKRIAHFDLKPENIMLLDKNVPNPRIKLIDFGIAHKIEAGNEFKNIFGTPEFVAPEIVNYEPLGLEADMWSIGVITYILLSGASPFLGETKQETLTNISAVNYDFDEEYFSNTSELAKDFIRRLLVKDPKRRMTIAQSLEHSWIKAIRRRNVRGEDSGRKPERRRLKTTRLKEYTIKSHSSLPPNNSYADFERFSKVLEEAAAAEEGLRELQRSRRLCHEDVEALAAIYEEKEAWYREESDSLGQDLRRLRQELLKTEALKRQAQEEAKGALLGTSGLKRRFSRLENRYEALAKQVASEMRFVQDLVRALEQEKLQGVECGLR

[14] = target: T12, PAK2 (Homo sapiens, UniProt Q13177); experiment: Kinase panel screen; format: biochemical; details: Compound I and ATP 10 μM
T12 construct: purchased Upstate USA or Invitrogen (commercial screening service)
T12 sequence (Q13177 whole entry): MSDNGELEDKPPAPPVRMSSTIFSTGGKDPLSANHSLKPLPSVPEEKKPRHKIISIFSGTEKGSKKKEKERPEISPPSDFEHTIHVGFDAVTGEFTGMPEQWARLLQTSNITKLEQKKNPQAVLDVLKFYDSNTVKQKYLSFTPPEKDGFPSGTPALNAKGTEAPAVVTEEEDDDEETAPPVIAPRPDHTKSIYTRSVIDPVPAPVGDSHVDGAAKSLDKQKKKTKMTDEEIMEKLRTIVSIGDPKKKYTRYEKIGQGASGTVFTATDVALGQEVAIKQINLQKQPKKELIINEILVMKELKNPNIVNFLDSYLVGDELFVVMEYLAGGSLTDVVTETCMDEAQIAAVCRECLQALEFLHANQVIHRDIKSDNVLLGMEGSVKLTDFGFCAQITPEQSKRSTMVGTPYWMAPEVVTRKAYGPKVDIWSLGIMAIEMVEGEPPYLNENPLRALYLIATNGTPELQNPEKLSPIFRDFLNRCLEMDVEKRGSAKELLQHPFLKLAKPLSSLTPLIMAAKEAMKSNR

[15] = target: JNK1a1 (Homo sapiens, UniProt P45983); experiment: Kinase panel screen; format: biochemical; details: Compound I and ATP 10 μM
JNK1a1, sequence (P45983 1-384 isoform P45983-2): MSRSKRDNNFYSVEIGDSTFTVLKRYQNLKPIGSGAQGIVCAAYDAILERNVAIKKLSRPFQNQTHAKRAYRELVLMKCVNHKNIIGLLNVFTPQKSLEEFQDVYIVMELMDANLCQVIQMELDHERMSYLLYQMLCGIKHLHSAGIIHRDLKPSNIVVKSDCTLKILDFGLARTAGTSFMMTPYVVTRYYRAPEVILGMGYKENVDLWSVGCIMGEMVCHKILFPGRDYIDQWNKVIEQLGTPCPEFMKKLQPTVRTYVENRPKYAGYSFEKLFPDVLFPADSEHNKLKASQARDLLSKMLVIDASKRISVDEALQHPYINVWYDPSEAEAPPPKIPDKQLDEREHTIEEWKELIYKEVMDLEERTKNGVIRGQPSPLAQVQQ

[16] = target: T13, PKC0 (Homo sapiens, UniProt Q04759); experiment: Kinase panel screen; format: biochemical; details: Compound I and ATP 10 μM
T13 construct: purchased Upstate USA or Invitrogen (commercial screening service)

[17] = target: T14, cKit (Homo sapiens, UniProt P10721); experiment: Kinase panel screen; format: biochemical; details: Compound I and ATP 10 μM
T14 construct: purchased Upstate USA or Invitrogen (commercial screening service)

[18] = target: T15, SAPK2a (Homo sapiens, UniProt Q16539); experiment: Kinase panel screen; format: biochemical; details: Compound I and ATP 10 μM
T15 construct: purchased Upstate USA or Invitrogen (commercial screening service)

[19] = target: T16, Pim-1 (Homo sapiens, UniProt P11309); experiment: Kinase panel screen; format: biochemical; details: Compound I and ATP 10 μM
T16 construct: purchased Upstate USA or Invitrogen (contract screening service)
T16 sequence (P11309 whole entry): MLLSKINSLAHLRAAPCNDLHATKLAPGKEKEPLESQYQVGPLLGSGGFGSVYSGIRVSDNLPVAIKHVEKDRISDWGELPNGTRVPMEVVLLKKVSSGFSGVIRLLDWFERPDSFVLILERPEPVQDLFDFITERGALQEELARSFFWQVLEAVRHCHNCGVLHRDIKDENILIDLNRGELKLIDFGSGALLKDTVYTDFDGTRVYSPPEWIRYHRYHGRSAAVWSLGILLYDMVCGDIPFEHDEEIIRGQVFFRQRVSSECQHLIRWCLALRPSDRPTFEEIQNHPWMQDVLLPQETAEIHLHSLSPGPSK

[20] = target: T17, TBK1 (Homo sapiens, UniProt Q9UHD2); experiment: Kinase panel screen; format: biochemical; details: Compound I and ATP 10 μM
T17 construct: purchased Upstate USA or Invitrogen (contract screening service)
T17 sequence (Q9UHD2 whole entry): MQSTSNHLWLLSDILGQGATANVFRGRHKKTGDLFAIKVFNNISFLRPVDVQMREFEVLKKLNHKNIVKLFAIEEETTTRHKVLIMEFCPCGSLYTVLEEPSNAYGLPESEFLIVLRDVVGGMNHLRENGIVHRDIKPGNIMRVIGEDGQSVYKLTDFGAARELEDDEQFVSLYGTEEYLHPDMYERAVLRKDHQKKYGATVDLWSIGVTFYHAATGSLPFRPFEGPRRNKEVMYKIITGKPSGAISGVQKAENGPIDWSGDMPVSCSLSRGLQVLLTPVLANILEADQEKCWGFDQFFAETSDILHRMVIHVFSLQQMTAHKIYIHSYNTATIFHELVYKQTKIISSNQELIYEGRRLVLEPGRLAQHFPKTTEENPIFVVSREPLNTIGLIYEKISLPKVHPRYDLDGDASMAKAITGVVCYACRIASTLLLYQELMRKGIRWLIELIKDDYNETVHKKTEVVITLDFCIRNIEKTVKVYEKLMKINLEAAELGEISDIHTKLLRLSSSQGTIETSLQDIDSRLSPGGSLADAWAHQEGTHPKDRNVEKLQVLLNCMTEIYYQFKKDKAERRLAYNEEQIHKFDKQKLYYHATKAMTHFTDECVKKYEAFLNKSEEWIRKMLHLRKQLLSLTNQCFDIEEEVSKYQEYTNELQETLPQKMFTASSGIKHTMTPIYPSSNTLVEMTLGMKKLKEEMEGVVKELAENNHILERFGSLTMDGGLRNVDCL

[21] = target: T18, CK18 (Homo sapiens, UniProt P48730); experiment: Kinase panel screen; format: biochemical; details: Compound I and ATP 10 μM
T18 construct: purchased Upstate USA or Invitrogen (contract screening service)

[22] = tested on: EC; experiment: EC proliferation; format: cell-based; details: inhibitors at 10 μM; 24, 48, 72 h
Protocol: Inhibition of cell proliferation and signaling. (a) EC were cultured in the presence of vehicle (DMSO) or PI3K inhibitors (all at 10 μM); cell proliferation was assessed either 24 (open bar), 48 (grey bar), or 72 h (black bar) later.
Applicants therefore compared the compounds profiled in Table 1 for their effects on cell proliferation.

[23] = target: T19, Fms (Homo sapiens, UniProt P07333); experiment: Kinase panel screen; format: biochemical; details: Compound I and ATP 10 μM
T19 construct: purchased Upstate USA or Invitrogen (commercial screening service)

[24] = target: T20, Fyn (Homo sapiens, UniProt P06241); experiment: Kinase panel screen; format: biochemical; details: Compound I and ATP 10 μM
T20 construct: purchased Upstate USA or Invitrogen (commercial screening service)
T20 sequence (P06241 whole entry): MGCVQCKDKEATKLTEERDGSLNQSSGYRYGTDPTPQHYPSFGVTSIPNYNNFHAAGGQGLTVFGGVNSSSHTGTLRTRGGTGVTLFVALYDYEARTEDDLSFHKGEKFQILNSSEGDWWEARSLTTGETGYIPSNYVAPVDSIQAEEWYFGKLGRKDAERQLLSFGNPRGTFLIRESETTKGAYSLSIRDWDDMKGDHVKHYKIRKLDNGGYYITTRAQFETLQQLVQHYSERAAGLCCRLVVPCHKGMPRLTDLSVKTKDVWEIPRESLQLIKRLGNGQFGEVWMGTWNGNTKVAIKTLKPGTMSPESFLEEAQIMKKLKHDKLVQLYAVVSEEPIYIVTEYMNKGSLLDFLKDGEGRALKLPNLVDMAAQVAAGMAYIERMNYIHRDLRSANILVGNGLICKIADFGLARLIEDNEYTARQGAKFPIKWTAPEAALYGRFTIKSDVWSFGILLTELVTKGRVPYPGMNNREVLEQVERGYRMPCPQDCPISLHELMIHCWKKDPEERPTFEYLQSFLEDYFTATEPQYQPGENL

[25] = target: T21, ALK4 (Homo sapiens, UniProt P36896); experiment: Kinase panel screen; format: biochemical; details: Compound I and ATP 10 μM
T21 construct: purchased Upstate USA or Invitrogen (commercial screening service)

[26] = tested on: dextran-induced inflammatory edema; experiment: Rat hindpaw inflammation model, dextran; format: in vivo, Sprague Dawley rats
Protocol: FIG. 4. Inhibition of edema and inflammation. (a, b) Rats were injected i.v. with Evans blue dye and then intradermally with saline, VEGF or histamine. […] (c-f) Rat hindpaws were injected with either PAF (c & d) or dextran (e & f), and three hours later processed as H&E-stained paraffin sections. […] Images were taken of paws representing the mean group value for volume as presented in Results (original magnification 200×).
The Miles assay models a primarily endothelial-based response that develops rapidly (within minutes). As a comparator, we next employed a rodent hindpaw model where more complex inflammatory reactions develop over several hours. Agonists included PAF, a GPCR ligand that activates both EC and leukocytes, and dextran, a phagocytic stimulus for mast cell and leukocyte activation. […] Paw volume (a more quantitative measure of edema and inflammation) was reduced by 62% and 78% in response to PAF or dextran, respectively (n=8, P<0.001). Finally, to correlate these in vivo responses with the molecular target of interest, we monitored PI3K pathway signaling through Western blot analyses of Akt phosphorylation (a PI3K-mediated event).
In order to determine the influence of compounds on the development of inflammation, Sprague Dawley rats were first injected intravenously with either vehicle or test compound at 5 mg/kg, and then 30 min later either PBS (as a control), dextran or platelet activating factor (PAF) was injected into the plantar surface of the hindlimbs, dextran and PAF being known to induce localized inflammatory responses marked by edema. Three hours later, paw dimensions were measured using a caliper and paw volumes calculated; data are shown as the increase in paw volume (mm^3) as compared to controls (paws injected with PBS).

[27] = target: T22, CDK1 (Homo sapiens, UniProt P06493); experiment: Kinase panel screen; format: biochemical; details: Compound I and ATP 10 μM
T22 construct: purchased Upstate USA or Invitrogen (commercial screening service)

[28] = target: T23, SGK (Homo sapiens, UniProt O00141, S422D); experiment: Kinase panel screen; format: biochemical; details: Compound I and ATP 10 μM
T23 construct: purchased Upstate USA or Invitrogen (commercial screening service)

T1 sequence (P53778 whole entry): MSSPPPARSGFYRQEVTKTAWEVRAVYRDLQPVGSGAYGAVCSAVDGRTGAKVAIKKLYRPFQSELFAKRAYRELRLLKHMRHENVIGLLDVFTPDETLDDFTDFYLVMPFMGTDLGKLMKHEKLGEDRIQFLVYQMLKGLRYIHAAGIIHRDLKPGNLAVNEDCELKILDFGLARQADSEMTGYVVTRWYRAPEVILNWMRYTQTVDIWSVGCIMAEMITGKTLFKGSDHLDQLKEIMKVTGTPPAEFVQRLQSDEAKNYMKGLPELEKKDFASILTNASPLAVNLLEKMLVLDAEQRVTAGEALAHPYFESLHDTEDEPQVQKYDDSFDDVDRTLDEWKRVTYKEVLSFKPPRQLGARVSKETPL

Nc1nc(N)c2nc(-c3cccc(O)c3)c(-c3cccc(O)c3)nc2n1 [Compound I, 6,7-bis-(3-hydroxyphenyl)-pteridine-2,4-diamine]
Percent Control, SAPK3 [1]: 98%
Percent Control, SAPK2b [2]: 87%
Percent Control, DDR2 [3]: 88%
Percent Control, Lyn (m) [4]: 41%
Percent Control, ZAP-70 [5]: 96%
Percent Control, MKK6 [6]: 75%
Percent Control, ErbB4 [7]: 40%
Percent Control, cRaf* [8]: 98%
Percent Control, Akt1* [9]: 96%
Percent Control, PKCi [10]: 105%
Percent Control, Akt3* [11]: 98%
Percent Control, MEK1 [12]: 94%
Percent Control, ZIPK [13]: 112%
Percent Control, PAK2 [14]: 87%
Percent Control, JNK1a1 [15]: 80%
Percent Control, PKC0 [16]: 73%
Percent Control, cKit [17]: 96%
Percent Control, SAPK2a [18]: 55%
Percent Control, Pim-1 [19]: 70%
Percent Control, TBK1 [20]: 89%
Percent Control, CK18 [21]: 24%
effect on EC proliferation [22]: no effects
Percent Control, Fms [23]: 77%
Percent Control, Fyn [24]: 54%
Percent Control, ALK4 [25]: 91%
Increase in Paw Volume vs. Controls ([26]; Dextran, 5 mg/kg iv 30 min before, 3 hours, mean±SEM N=6, vehicle 148 ± 6): 32 ± 5 mm^3
edema and leukocyte infiltration (histology) ([26]; dextran, 5 mg/kg pretreatment, three hours): strongly antagonized; also recorded: blocked
reduction of paw volume ([26]; dextran, n=8): 78%
Percent Control, CDK1 [27]: 54%
Percent Control, SGK [28]: 95%
